Patent US12214036B2, “Combination therapy comprising AXL/MER and PD-1/PD-L1 inhibitors” (Incyte Corporation, priority 2020, dated 2025)

Target: T1, MER (Homo sapiens, UniProt Q12866)
T1 construct: recombinant phosphorylated forms of the kinase domains for AXL, MER and TYRO3; purchased Carna Biosciences 08-108
T1 sequence (Q12866 587-858 limits assumed): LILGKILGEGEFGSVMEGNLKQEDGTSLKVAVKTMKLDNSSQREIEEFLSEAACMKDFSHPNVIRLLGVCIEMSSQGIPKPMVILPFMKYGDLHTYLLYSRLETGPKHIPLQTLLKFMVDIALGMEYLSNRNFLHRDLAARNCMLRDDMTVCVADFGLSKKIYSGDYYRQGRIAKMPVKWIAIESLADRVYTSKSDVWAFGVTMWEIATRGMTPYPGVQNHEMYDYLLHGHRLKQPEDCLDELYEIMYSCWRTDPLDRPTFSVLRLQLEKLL
Assay: TR-FRET kinase assay, cMER
Format: biochemical
Experimental: The biochemical potency of Compound 1 to inhibit the enzymatic activity of TAM family members was investigated by TR-FRET assays using recombinant phosphorylated forms of the kinase domains for AXL, MER and TYRO3.
Phospho-AXL (pAXL), cMER and Tyro3 kinase activities were measured by time-resolved fluorescence energy transfer (TR-FRET) assays. Autophosphorylation of AXL was carried out before the kinase assay by incubating the recombinant AXL protein (ThermoFisher Scientific; #PV4275) in buffer containing 50 mM Tris, pH 7.5, 0.2 mg/mL AXL, 5 mM ATP, 20 mM MgCl2 and 2 mM dithiothreitol (DTT) at room temperature for 1 hour. […] The plate was incubated for 30 minutes at room temperature, and homogenous time resolved fluorescence (HTRF) signal was measured on a PheraStar FS plate reader (BMG Labtech, Ortenberg, Germany). Percent inhibition was calculated for each concentration, and half maximal inhibitory concentration (IC50) value was generated from curve fitting with GraphPad Prism software (San Diego, Calif.).
Compound reversibility was determined by measuring the recovery of cMER enzymatic activity after a rapid and large dilution of the cMER-inhibitor complex. cMER, ATP, and biotin-labeled peptide substrate were diluted in kinase assay buffer containing 50 mM HEPES, pH 7.5, 10 mM MgCl2, 1 mM EGTA, 0.01% NP-40, and 2 mM DTT. […]

CC(C)C(=O)N1CCC(c2cc(-c3ccc(NC(=O)c4cn(C(C)C)c(=O)n(-c5ccccn5)c4=O)cc3)c3c(N)ncnn23)CC1 [Compound 1, N-(4-(4-Amino-7-(1-isobutyrylpiperidin-4-yl)pyrrolo[1,2-f][1,2,4]triazin-5-yl)phenyl)-1-isopropyl-2,4-dioxo-3-(pyridin-2-yl)-1,2,3,4-tetrahydropyrimidine-5-carboxamide] was tested, and the “mode of inhibition with respect to ATP concentration” value (MER kinase assay, IC50 at 25, 100, 300, 1000 μM ATP (FIG. 1)) was “ATP-competitive mode of inhibition” and the IC50 (average from multiple lots, n=25, read-out: IC50 against MER) was 3.17 ± 1.97 nM.
